Where two headings read alike, the source gives them in different places. Each block holds one compound with its values, some of them ahead of it.
Assays:
MV-4-11 = assay: CCK-8 proliferation, MV-4-11; assay type: cell-based, Human; details: Homo sapiens, MV4-11
Experimental: The tumor cells used herein were cultured in a cell culture medium listed in table A1 at 37°C in an incubator with 5% CO2. Prior to experimentation, all cell lines used were correctly identified by STR profiling, and tested negative for mycoplasma contamination using a mycoplasma detection kit through routine screenings. Table A1. Tumor cells and cell culture medium used in the present disclosure
IC50 values of the compounds of the present disclosure (including the compounds in Table 1, and compounds of examples) were measured using the Meilun Cell Counting Kit-8 kit from Dalian Meilun Biotech Co., Ltd. Assay details are as follows: tumor cells were seeded in a 96-well plate at a density listed in Table A2. After 24h, 100 µL of the inoculated cells were treated with 0.5µL of the compounds of the present disclosure (including the compounds in Tables 1 and 2, and compounds of examples) at 10 different successively decreasing concentrations (starting at the highest concentration of 10µM; 5-fold serial dilutions). After the cells were treated with the compounds of the present disclosure for a period of time, the cell viability detection reagent was added to the culture medium for cell viability assessment according to the instructions provided with the CCK-8 kit. […] The growth inhibition of the compounds of the present disclosure on cells was plotted by Prism Graphpad software, and the IC50 values of the compounds of the present disclosure were calculated therefrom. […] Seeding protocol and treatment time for tumor cells

MM.1S = assay: CCK-8 proliferation, MM.1S; assay type: cell-based; details: Homo sapiens, MM1.S, read-out: Inhibitory activity (IC50) on tumor cell proliferation, MM1S
How it was run: (§1)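 Tumor cells were cultured at 37°C with 5% CO2, seeded, and after 24h treated with compounds at 10 concentrations starting at 10µM (5-fold serial dilutions).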

GSPT1 = biological target: T1, GSPT1 (Homo sapiens, UniProt P15170+Q96SW2); assay: Western blot degradation of GSPT1 (hPBMC); assay type: cell-based; details: Table D16
T1 construct: evaluate the effects of the compounds of the present disclosure on the expression of target proteins in cells; endogenous in cells; host or cells: hPBMC
How it was run: (§2)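 After compound exposure, cells were harvested and lysates run on SDS-PAGE, transferred to nitrocellulose and probed with antibodies. Remaining target (%) was computed from band grayscale relative to an internal control protein and normalised; degradation (%) was 100% minus that.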

WEE1 = biological target: T2, WEE1 (Homo sapiens, UniProt P30291+Q96SW2); assay: Western blot degradation of WEE1 (hPBMC); assay type: cell-based; details: Table D16
T2 construct: evaluate the effects of the compounds of the present disclosure on the expression of target proteins in cells; endogenous in cells; host or cells: hPBMC
How it was run: as §2

IKZF1 = biological target: T3, IKZF1 (Homo sapiens, UniProt Q13422+Q96SW2); assay: Western blot degradation of IKZF1 (hPBMC); assay type: cell-based; details: Table D16
T3 construct: evaluate the effects of the compounds of the present disclosure on the expression of target proteins in cells; endogenous in cells; host or cells: hPBMC
How it was run: as §2

CK1a = biological target: T4, CK1a (Homo sapiens, UniProt P48729+Q96SW2); assay: Western blot degradation of CK1a (hPBMC); assay type: cell-based; details: Table D16
T4 construct: evaluate the effects of the compounds of the present disclosure on the expression of target proteins in cells; endogenous in cells; host or cells: hPBMC
How it was run: as §2

IKZF3 = biological target: T5, IKZF3 (Homo sapiens, UniProt Q96SW2+Q9UKT9); assay: Western blot degradation of IKZF3 (hPBMC); assay type: cell-based; details: Table D16
T5 construct: evaluate the effects of the compounds of the present disclosure on the expression of target proteins in cells; endogenous in cells; host or cells: hPBMC
How it was run: as §2

IKZF2 = biological target: T6, IKZF2 (Homo sapiens, UniProt Q96SW2+Q9UKS7); assay: Western blot degradation of IKZF2 (hPBMC); assay type: cell-based; details: Table D16
T6 construct: evaluate the effects of the compounds of the present disclosure on the expression of target proteins in cells; endogenous in cells; host or cells: hPBMC
How it was run: as §2

MCF7 = assay: CCK-8 proliferation, MCF7 (MCF-7); assay type: cell-based; details: Homo sapiens, MCF7; CCK-8; read-out: Inhibitory activity (IC50) on tumor cell proliferation, MCF-7
How it was run: as §1

[1] = CCK-8, 72 or 96 hours, read-out: Inhibitory activity (IC50) on tumor cell proliferation, MV-4-11
[2] = Table B10, compounds designed based on the IRAK4 inhibitors, MV-4-11 cells, read-out: Inhibitory activity (IC50, nM) on tumor cell proliferation, MV-4-11

T4 sequence (P48729 whole entry): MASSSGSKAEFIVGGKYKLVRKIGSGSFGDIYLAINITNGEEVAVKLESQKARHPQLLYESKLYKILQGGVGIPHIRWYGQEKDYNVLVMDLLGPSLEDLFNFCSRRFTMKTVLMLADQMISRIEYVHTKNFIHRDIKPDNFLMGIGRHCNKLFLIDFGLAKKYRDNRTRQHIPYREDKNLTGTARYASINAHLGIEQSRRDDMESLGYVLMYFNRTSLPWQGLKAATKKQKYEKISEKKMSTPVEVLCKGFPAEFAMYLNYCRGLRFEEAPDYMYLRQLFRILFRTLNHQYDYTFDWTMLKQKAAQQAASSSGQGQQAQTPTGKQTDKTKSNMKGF
T4 sequence (Q96SW2 whole entry): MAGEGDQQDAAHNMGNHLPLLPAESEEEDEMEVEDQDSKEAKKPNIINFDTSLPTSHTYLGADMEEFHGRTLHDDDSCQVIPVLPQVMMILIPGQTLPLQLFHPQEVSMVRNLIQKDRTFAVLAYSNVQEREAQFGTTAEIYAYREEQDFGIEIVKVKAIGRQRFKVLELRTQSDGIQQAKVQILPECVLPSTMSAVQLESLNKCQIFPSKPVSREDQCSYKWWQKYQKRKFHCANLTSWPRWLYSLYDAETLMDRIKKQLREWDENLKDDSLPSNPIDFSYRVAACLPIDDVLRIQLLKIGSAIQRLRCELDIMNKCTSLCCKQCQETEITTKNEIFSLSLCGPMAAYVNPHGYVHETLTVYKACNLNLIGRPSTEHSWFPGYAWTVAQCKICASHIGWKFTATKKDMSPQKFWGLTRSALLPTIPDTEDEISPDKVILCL
T4 sequence (Q16531 whole entry partner): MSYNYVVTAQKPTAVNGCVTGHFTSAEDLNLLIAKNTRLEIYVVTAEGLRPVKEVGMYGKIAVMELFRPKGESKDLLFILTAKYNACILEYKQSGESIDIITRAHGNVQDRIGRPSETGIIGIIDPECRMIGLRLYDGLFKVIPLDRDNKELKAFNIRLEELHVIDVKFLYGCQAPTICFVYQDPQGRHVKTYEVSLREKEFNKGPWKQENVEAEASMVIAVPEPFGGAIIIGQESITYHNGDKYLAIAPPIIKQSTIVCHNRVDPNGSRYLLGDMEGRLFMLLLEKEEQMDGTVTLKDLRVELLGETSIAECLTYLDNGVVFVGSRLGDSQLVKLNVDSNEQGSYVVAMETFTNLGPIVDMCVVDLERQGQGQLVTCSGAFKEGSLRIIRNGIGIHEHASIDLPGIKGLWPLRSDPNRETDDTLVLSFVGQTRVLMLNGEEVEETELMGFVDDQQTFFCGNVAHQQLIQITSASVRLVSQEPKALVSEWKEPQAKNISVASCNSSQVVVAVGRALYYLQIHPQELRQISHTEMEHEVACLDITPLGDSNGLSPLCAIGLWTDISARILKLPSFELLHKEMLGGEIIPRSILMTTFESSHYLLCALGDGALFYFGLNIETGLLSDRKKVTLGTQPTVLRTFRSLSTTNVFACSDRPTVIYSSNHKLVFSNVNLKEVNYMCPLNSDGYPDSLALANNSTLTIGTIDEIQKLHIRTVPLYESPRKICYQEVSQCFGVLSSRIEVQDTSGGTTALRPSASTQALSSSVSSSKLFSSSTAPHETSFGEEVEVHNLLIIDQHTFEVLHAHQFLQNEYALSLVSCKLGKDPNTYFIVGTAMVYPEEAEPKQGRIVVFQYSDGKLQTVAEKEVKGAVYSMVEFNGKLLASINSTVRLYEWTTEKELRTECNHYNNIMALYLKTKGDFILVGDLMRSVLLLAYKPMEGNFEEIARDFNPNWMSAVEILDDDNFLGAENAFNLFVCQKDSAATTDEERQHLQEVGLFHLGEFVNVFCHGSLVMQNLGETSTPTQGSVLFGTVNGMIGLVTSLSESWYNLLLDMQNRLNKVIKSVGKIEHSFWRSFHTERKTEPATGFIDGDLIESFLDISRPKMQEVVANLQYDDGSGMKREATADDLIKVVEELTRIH
T6 sequence (Q9UKS7 whole entry): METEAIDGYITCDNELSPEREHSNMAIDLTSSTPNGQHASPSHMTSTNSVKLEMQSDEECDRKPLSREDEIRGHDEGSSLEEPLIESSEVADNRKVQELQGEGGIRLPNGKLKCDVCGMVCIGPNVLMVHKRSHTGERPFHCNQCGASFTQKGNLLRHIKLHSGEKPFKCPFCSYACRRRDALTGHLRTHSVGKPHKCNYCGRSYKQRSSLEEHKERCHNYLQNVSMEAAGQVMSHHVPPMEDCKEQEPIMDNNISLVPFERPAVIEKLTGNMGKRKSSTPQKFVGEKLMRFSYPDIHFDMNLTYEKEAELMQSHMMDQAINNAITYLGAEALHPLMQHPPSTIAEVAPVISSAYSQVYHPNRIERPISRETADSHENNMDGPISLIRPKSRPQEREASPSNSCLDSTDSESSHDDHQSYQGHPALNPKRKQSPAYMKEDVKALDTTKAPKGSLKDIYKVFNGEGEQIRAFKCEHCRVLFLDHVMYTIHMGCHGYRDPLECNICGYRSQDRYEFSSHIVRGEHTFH
T6 sequence (Q96SW2 whole entry): as the sequence (Q96SW2 whole entry) above
T6 sequence (Q16531 whole entry partner): as the sequence (Q16531 whole entry partner) above
T3 sequence (Q13422 whole entry): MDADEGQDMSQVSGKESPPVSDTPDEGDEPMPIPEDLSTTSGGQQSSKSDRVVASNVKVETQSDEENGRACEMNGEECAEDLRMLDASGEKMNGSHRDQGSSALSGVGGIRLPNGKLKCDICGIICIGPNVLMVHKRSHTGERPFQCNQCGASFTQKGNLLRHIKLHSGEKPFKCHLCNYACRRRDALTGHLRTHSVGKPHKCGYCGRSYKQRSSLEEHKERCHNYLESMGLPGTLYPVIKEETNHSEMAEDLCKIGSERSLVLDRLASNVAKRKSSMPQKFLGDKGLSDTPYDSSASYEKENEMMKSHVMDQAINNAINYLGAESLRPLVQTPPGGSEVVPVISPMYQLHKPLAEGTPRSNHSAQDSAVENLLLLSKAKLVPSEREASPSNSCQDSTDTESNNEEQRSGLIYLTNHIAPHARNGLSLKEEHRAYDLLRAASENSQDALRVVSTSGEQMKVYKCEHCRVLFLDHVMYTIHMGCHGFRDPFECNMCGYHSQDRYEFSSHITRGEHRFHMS
T3 sequence (Q96SW2 whole entry): as the sequence (Q96SW2 whole entry) above
T3 sequence (Q16531 whole entry partner): as the sequence (Q16531 whole entry partner) above
T2 sequence (P30291 whole entry): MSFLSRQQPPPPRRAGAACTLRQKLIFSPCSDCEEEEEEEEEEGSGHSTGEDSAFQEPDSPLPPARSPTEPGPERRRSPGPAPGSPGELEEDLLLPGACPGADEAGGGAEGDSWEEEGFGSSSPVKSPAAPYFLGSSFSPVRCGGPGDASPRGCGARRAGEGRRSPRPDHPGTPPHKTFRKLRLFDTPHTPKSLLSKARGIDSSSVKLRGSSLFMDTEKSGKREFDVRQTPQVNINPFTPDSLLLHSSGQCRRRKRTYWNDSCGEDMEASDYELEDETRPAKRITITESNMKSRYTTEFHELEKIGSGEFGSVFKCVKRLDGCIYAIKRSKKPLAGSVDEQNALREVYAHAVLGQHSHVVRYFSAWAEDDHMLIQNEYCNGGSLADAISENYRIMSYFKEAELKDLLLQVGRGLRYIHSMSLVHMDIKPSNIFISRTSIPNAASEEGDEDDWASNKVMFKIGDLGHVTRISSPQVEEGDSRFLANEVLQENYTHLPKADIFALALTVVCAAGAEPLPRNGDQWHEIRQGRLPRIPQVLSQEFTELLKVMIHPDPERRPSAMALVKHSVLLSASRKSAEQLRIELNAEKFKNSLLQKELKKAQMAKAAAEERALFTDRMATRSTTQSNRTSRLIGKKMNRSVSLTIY
T2 sequence (Q96SW2 whole entry): as the sequence (Q96SW2 whole entry) above
T2 sequence (Q16531 whole entry partner): as the sequence (Q16531 whole entry partner) above
T5 sequence (Q9UKT9 whole entry): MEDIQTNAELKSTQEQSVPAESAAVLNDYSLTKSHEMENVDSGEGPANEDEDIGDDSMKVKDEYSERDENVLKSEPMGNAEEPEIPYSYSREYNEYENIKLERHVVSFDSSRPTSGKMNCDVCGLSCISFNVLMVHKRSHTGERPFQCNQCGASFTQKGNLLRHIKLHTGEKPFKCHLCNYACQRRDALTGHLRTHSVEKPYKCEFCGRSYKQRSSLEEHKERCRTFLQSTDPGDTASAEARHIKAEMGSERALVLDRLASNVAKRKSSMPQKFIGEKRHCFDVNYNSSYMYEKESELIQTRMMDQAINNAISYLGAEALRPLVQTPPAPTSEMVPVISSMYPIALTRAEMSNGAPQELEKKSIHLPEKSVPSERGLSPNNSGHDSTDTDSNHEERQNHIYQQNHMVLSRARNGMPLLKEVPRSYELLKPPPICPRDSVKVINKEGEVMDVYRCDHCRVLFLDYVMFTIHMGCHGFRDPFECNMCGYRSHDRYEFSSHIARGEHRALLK
T5 sequence (Q96SW2 whole entry): as the sequence (Q96SW2 whole entry) above
T5 sequence (Q16531 whole entry partner): as the sequence (Q16531 whole entry partner) above

SMILES: Cc1cc(S(=O)(=O)N2CCN(Cc3ccc(C4CCC(=O)NC4=O)cc3)CC2)ccc1Nc1ncc(Br)c(Nc2cccc(F)c2C(N)=O)n1 (centres unmarked) [GT-06830, 2-((5-bromo-2-((4-((4-(4-(2,6-dioxopiperidin-3-yl)benzyl)piperazin-1-yl)sulfonyl)-2-methylphenyl)amino)pyrimidin-4-yl)amino)-6-fluorobenzamide]
- IC50 (MV-4-11; [1]): 100 to 500 nM

SMILES: Nc1nc(Nc2ccc(S(=O)(=O)N3CCN(Cc4cccc(N5CCC(=O)NC5=O)c4)CC3)cc2)nn1C(=O)c1c(F)cccc1F [GT-06752, 1-(3-((4-((4-((5-amino-1-(2,6-difluorobenzoyl)-1H-1,2,4-triazol-3-yl)amino)phenyl)sulfonyl)piperazin-1-yl)methyl)phenyl)dihydropyrimidine-2,4(1H,3H)-dione]
- IC50 (MV-4-11; [1]): 500 to 1000 nM

SMILES: Cc1cc(-c2nc(C(=O)Nc3cc4oc(N5CCN(Cc6ccc(C7CCC(=O)NC7=O)cc6)CC5)nc4nc3N3CC[C@@H](O)C3)co2)ccn1 (stereo partly drawn) [GT-03846, N-(2-(4-(4-(2,6-dioxopiperidin-3-yl)benzyl)piperazin-1-yl)-5-((R)-3-hydroxypyrrolidin-1-yl)oxazolo[4,5-b]pyridin-6-yl)-2-(2-methylpyridin-4-yl)oxazole-4-carboxamide]
- IC50 (MV-4-11; [2]): 50 to 100 nM

SMILES: O=C1CCN(c2ccc(CN3CCC(n4cc(NC(=O)c5cnn6ccc(N7CCOCC7)nc56)c(C(F)F)n4)CC3)cc2F)C(=O)N1 [GT-03814, N-(3-(difluoromethyl)-1-(1-(4-(2,4-dioxotetrahydropyrimidin-1(2H)-yl)-3-fluorobenzyl)piperidin-4-yl)-1H-pyrazol-4-yl)-5-morpholinopyrazolo[1,5-a]pyrimidine-3-carboxamide]
- IC50 (MV-4-11; [2]): 100 to 500 nM

SMILES: Cc1cc(-c2nc(C(=O)Nc3cc4oc(N5CCN(Cc6ccc(C7CCC(=O)NC7=O)c(F)c6)CC5)nc4nc3N3CC[C@@H](O)C3)co2)ccn1 (stereo partly drawn) [GT-03847, N-(2-(4-(4-(2,6-dioxopiperidin-3-yl)-3-fluorobenzyl)piperazin-1-yl)-5-((R)-3-hydroxypyrrolidin-1-yl)oxazolo[4,5-b]pyridin-6-yl)-2-(2-methylpyridin-4-yl)oxazole-4-carboxamide]
- IC50 (MV-4-11; [2]): 50 to 100 nM

SMILES: Nc1nc(Nc2ccc(S(=O)(=O)N3CCN(Cc4ccc(N5CCC(=O)NC5=O)cn4)CC3)cc2)nn1C(=O)c1c(F)cccc1F [GT-06753, 1-(6-((4-((4-((5-amino-1-(2,6-difluorobenzoyl)-1H-1,2,4-triazol-3-yl)amino)phenyl)sulfonyl)piperazin-1-yl)methyl)pyridin-3-yl)dihydropyrimidine-2,4(1H,3H)-dione]
- IC50 (MV-4-11; [1]): 100 to 500 nM

SMILES: CC(C)(C)[Si](C)(C)OCc1ccc(NC2CCC(=O)NC2=O)cn1 (centres unmarked) [GT-07445, 3-((6-(((tert-Butyldimethylsilyl)oxy)methyl)pyridin-3-yl)amino)piperidine-2,6-dione]
- IC50 (MM.1S; 72 h): 500 to 1000 nM
- Degradation of substrate protein GSPT1 (substrate protein remaining %) (GSPT1): A (A is defined as 0% ≤ substrate protein remaining % ≤ 80%)
- Degradation of substrate protein WEE1 (substrate protein remaining %) (WEE1): A (A is defined as 0% ≤ substrate protein remaining % ≤ 80%)
- Degradation of substrate protein IKZF1 (substrate protein remaining %) (IKZF1): A (A is defined as 0% ≤ substrate protein remaining % ≤ 80%)
- Degradation of substrate protein CKla (substrate protein remaining %) (CK1a): A (A is defined as 0% ≤ substrate protein remaining % ≤ 80%)
- Degradation of substrate protein IKZF3 (substrate protein remaining %) (IKZF3): B (B is defined as substrate protein remaining % > 80%)
- Degradation of substrate protein IKZF2 (substrate protein remaining %) (IKZF2): B (B is defined as substrate protein remaining % > 80%)

Second part, led by results:

- IC50 (MV-4-11; [1]): 100 to 500 nM
SMILES: Cc1ccsc1C(=O)n1nc(Nc2ccc(S(=O)(=O)N3CCN(Cc4cccc(N5CCC(=O)NC5=O)c4)CC3)cc2)nc1N [GT-06859, 1-(3-((4-((4-((5-amino-1-(3-methylthiophene-2-carbonyl)-1H-1,2,4-triazol-3-yl)amino)phenyl)sulfonyl)piperazin-1-yl)methyl)phenyl)dihydropyrimidine-2,4(1H,3H)-dione]

- IC50 (MV-4-11; [1]): 100 to 500 nM
SMILES: Cc1ccsc1C(=O)n1nc(Nc2ccc(S(=O)(=O)N3CCN(Cc4ccc(N5CCC(=O)NC5=O)cc4F)CC3)cc2)nc1N [GT-06858, 1-(4-((4-((4-((5-amino-1-(3-methylthiophene-2-carbonyl)-1H-1,2,4-triazol-3-yl)amino)phenyl)sulfonyl)piperazin-1-yl)methyl)-3-fluorophenyl)dihydropyrimidine-2,4(1H,3H)-dione]

- IC50 (MV-4-11; [1]): 500 to 1000 nM
SMILES: Cc1ccsc1C(=O)n1nc(Nc2ccc(S(=O)(=O)N3CCN(Cc4ccc(C5CCC(=O)NC5=O)c(F)c4)CC3)cc2)nc1N (centres unmarked) [GT-06855, 3-(4-((4-((4-((5-amino-1-(3-methylthiophene-2-carbonyl)-1H-1,2,4-triazol-3-yl)amino)phenyl)sulfonyl)piperazin-1-yl)methyl)-2-fluorophenyl)piperidine-2,6-dione]

- IC50 (MV-4-11; [1]): 100 to 500 nM
SMILES: Cc1ccsc1C(=O)n1nc(Nc2ccc(S(=O)(=O)N3CCN(Cc4ccc(C5CCC(=O)NC5=O)cc4)CC3)cc2)nc1N (centres unmarked) [GT-06854, 3-(4-((4-((4-((5-amino-1-(3-methylthiophene-2-carbonyl)-1H-1,2,4-triazol-3-yl)amino)phenyl)sulfonyl)piperazin-1-yl)methyl)phenyl)piperidine-2,6-dione]

- IC50 (MM.1S; CCK-8, 72 hours): 1000 to 5000 nM
- IC50 (MCF7): 1000 to 5000 nM
SMILES: O=C1CCC(c2cc(CO)ccn2)C(=O)N1 (centres unmarked) [GT-07050, 3-(4-(Hydroxymethyl)pyridin-2-yl)piperidine-2,6-dione]
- Degradation of substrate protein GSPT1 (substrate protein remaining %) (GSPT1): A (A is defined as 0% ≤ substrate protein remaining % ≤ 80%)
- Degradation of substrate protein WEE1 (substrate protein remaining %) (WEE1): B (B is defined as substrate protein remaining % > 80%)
- Degradation of substrate protein IKZF1 (substrate protein remaining %) (IKZF1): A (A is defined as 0% ≤ substrate protein remaining % ≤ 80%)
- Degradation of substrate protein CKla (substrate protein remaining %) (CK1a): A (A is defined as 0% ≤ substrate protein remaining % ≤ 80%)
- Degradation of substrate protein IKZF3 (substrate protein remaining %) (IKZF3): A (A is defined as 0% ≤ substrate protein remaining % ≤ 80%)
- Degradation of substrate protein IKZF2 (substrate protein remaining %) (IKZF2): B (B is defined as substrate protein remaining % > 80%)

- IC50 (MV-4-11; [1]): 100 to 500 nM
SMILES: Cc1ccsc1C(=O)n1nc(Nc2ccc(S(=O)(=O)N3CCN(Cc4ccc(N5CCC(=O)NC5=O)cn4)CC3)cc2)nc1N [GT-06860, 1-(6-((4-((4-((5-amino-1-(3-methylthiophene-2-carbonyl)-1H-1,2,4-triazol-3-yl)amino)phenyl)sulfonyl)piperazin-1-yl)methyl)pyridin-3-yl)dihydropyrimidine-2,4(1H,3H)-dione]

- IC50 (MV-4-11; [1]): 50 to 100 nM
SMILES: Cc1cc(S(=O)(=O)N2CCN(Cc3ccc(N4CCC(=O)NC4=O)cn3)CC2)ccc1Nc1ncc(Br)c(Nc2cccc(F)c2C(N)=O)n1 [GT-06833, 2-((5-bromo-2-((4-((4-((5-(2,4-dioxotetrahydropyrimidin-1(2H)-yl)pyridin-2-yl)methyl)piperazin-1-yl)sulfonyl)-2-methylphenyl)amino)pyrimidin-4-yl)amino)-6-fluorobenzamide]

- IC50 (MM.1S; CCK-8, 72 hours): 1000 to 5000 nM
- IC50 (MCF7): 1000 to 5000 nM
SMILES: O=C1CCN(c2cncc(CCl)c2)C(=O)N1 [GT-07047, 1-(5-(Chloromethyl)pyridin-3-yl)dihydropyrimidine-2,4(1H,3H)-dione]
- Degradation of substrate protein GSPT1 (substrate protein remaining %) (GSPT1): B (B is defined as substrate protein remaining % > 80%)
- Degradation of substrate protein WEE1 (substrate protein remaining %) (WEE1): B (B is defined as substrate protein remaining % > 80%)
- Degradation of substrate protein IKZF1 (substrate protein remaining %) (IKZF1): A (A is defined as 0% ≤ substrate protein remaining % ≤ 80%)
- Degradation of substrate protein CKla (substrate protein remaining %) (CK1a): A (A is defined as 0% ≤ substrate protein remaining % ≤ 80%)
- Degradation of substrate protein IKZF3 (substrate protein remaining %) (IKZF3): A (A is defined as 0% ≤ substrate protein remaining % ≤ 80%)
- Degradation of substrate protein IKZF2 (substrate protein remaining %) (IKZF2): A (A is defined as 0% ≤ substrate protein remaining % ≤ 80%)

Reference: patent EP4678638A1, “NEW E3 UBIQUITIN LIGASE LIGAND, PROTEIN DEGRADATION AGENT AND USE THEREOF” (priority 2023, dated 2024)
